Data taken from the Deep4Chem optical property database.
Each block holds one compound with its values, some of them ahead of it.

Assay: solvent given as SMILES

Compound: CCN(CC)c1ccc2cc(/C=C/C3=CC(/C=C/c4cc5ccc(N(CC)CC)cc5oc4=O)=[O+][B-](F)(F)O3)c(=O)oc2c1
- emission maximum (in CC#N): 725 nm
- emission maximum (in CC(C)=O): 710 nm
- emission maximum (in CCOC(C)=O): 659 nm
- emission maximum (in CN(C)C=O): 729 nm
- emission maximum (in CS(C)=O): 741 nm
- emission maximum (in Cc1ccccc1): 626 nm
- emission maximum (in ClC(Cl)Cl): 669 nm
- emission maximum (in ClCCl): 705 nm

Compound: c1ccc(-c2nc(-c3ccccc3)nc(-c3ccc(-n4c5ccccc5c5cc(-c6ccc7c(c6)c6ccccc6n7-c6ccccc6)ccc54)cc3)n2)cc1
- emission maximum (in O=P(c1ccccc1)(c1ccccc1)c1ccccc1Oc1ccccc1P(=O)(c1ccccc1)c1ccccc1): 458.07 nm

Compound: COc1ccc(O)cc1C=O
- emission maximum (in CO): 489 nm
- emission maximum (in ClC(Cl)Cl): 433 nm

Compound: S=P1(c2ccccc2)c2cccc3ccc4ccc1n4c23 (stereo unspecified)
- emission maximum (in ClCCl): 490 nm

Compound: O=C(c1ccncc1)c1ccc(-n2c3ccc(-n4c5ccccc5c5ccccc54)cc3c3cc(-n4c5ccccc5c5ccccc54)ccc32)cc1
- emission maximum (in C1CCOC1): 532.75 nm
- emission maximum (in Cc1ccccc1): 481.09 nm
- emission maximum (in c1cc(-c2cccc(-n3c4ccccc4c4ccccc43)c2)cc(-n2c3ccccc3c3ccccc32)c1): 487.5 nm

Compound: COC(=O)c1nc(-c2ccco2)oc1C
- emission maximum (in C1CCCCC1): 302 nm
- emission maximum (in CC#N): 318 nm
- emission maximum (in CCO): 323 nm
- emission maximum (in CCOC(C)=O): 304 nm

Compound: COc1cc(OC)cc(C2=[O+][B-](F)(F)OC(c3ccccc3)=C2)c1
- emission maximum (in CC#N): 602.29 nm
- emission maximum (in CC(C)=O): 590.78 nm
- emission maximum (in CCCCCC): 446.17 nm
- emission maximum (in Cc1ccccc1): 505.51 nm
- emission maximum (in ClCCl): 554 nm

Compound: CC1=N/C(=C\c2cc(C#N)cc(N(C)C)c2)C(=O)N1C
- emission maximum (in C1CCOC1): 544 nm
- emission maximum (in CC#N): 595 nm
- emission maximum (in CCCCCC): 475 nm

Compound: F[B-]1(F)n2c(Nc3cccc4cccnc34)ccc2C(c2ccccc2)=C2C=CC(Cl)=[N+]21
- emission maximum (in C1CCCCC1): 580 nm
- emission maximum (in CC#N): 580 nm
- emission maximum (in Cc1ccccc1): 586 nm
- emission maximum (in ClC(Cl)Cl): 583 nm

Compound: CC(C)(C)NS(=O)(=O)c1ccc2c(c1)C(=O)/C(=C1\Sc3ccc(S(=O)(=O)NC(C)(C)C)cc3C1=O)S2
- emission maximum (in C1COCCO1): 589 nm
- emission maximum (in CN(C)C=O): 604 nm
- emission maximum (in CS(C)=O): 618 nm

Compound: Oc1ccccc1-c1nc2c3ccccc3c3ccccc3c2o1
- emission maximum (in Cc1ccccc1): 367 nm

Compound: N#Cc1nn(-c2ccccc2Cl)nc1N1CCCC1
- emission maximum (in CC#N): 426 nm

Compound: Cc1cc(-c2ccc(-c3ccccc3)cc2)nc(-c2ccc(-n3c4ccccc4c4ccccc43)cc2)n1
- emission maximum (in C1CCOC1): 418 nm
- emission maximum (in CN(C)C=O): 474 nm
- emission maximum (in Cc1ccccc1): 386 nm
- emission maximum (in ClC(Cl)Cl): 416 nm

Compound: c1ccc(-c2nc(-c3ccccc3)nc(-n3c4ccccc4c4cccc(-n5c6ccccc6c6ccccc65)c43)n2)cc1
- emission maximum (in C1CCOC1): 477.86 nm
- emission maximum (in Cc1ccccc1): 459.26 nm

Compound: CC(C)(C)c1ccc2c(c1)c1cc(C(C)(C)C)ccc1n2-c1ccc(N(c2ccc(-c3ccc(-c4ccc(-c5ccc(-c6ccc(N(c7ccc(-n8c9ccc(C(C)(C)C)cc9c9cc(C(C)(C)C)ccc98)cc7)c7ccc(-n8c9ccc(C(C)(C)C)cc9c9cc(C(C)(C)C)ccc98)cc7)cc6)s5)c5nsnc45)s3)cc2)c2ccc(-n3c4ccc(C(C)(C)C)cc4c4cc(C(C)(C)C)ccc43)cc2)cc1
- emission maximum (in ClCCl): 640 nm

Compound: CCN(CC)c1ccc2c(c1)oc(=O)c1c(=O)oc3c(C)c4oc(=O)c5c(=O)oc6cc(N(CC)CC)ccc6c5c4cc3c12
- emission maximum (in CS(C)=O): 558 nm
- emission maximum (in ClCCl): 542 nm

Compound: C=CC1CN2CCC1CC2[C@@H](OCc1ccccc1)c1ccnc2ccc(O)cc12 (stereo partly specified)
- emission maximum (in C1CCOC1): 358 nm
- emission maximum (in CC#N): 362 nm
- emission maximum (in CCCC#N): 361 nm
- emission maximum (in Cc1ccccc1): 355 nm
- emission maximum (in ClCCl): 363 nm

Compound: c1ccc2c(c1)ccc1ccccc12
- emission maximum (in Cc1ccccc1): 350 nm

Compound: O=Cc1ccc(-c2ccc(C3=CCCCC3)s2)s1
- emission maximum (in C1CCOC1): 467 nm
- emission maximum (in CC#N): 485 nm
- emission maximum (in CCCCCC): 444 nm
- emission maximum (in CCO): 498 nm
- emission maximum (in OCCOCCO): 508 nm
- emission maximum (in c1ccncc1): 483 nm

Results, then the compound that gave them:

- emission maximum (in C1CCCCC1): 312 nm
Compound: CC(C)(C)c1ccc(-c2ccc(C(C)(C)C)cc2)cc1

- emission maximum (in ClCCl): 525 nm
Compound: CCCCCc1c(C(=O)c2ccc3c4c(cccc24)-c2cccc4c2C3CC=C4)c2ccc3cccc4c5cccc6ccc1c(c65)c2c34 (stereo unspecified)

- emission maximum (in ClCCl): 397 nm
Compound: COc1ccc2c(c1)-c1cc3c(cc1[Si]2(c1ccccc1)c1ccccc1)-c1ccccc1[Si]3(c1ccccc1)c1ccccc1

- emission maximum (in CCO): 437.06 nm
Compound: Cc1cc2cc3ccccc3cc2cn1

- emission maximum (in CC#N): 560 nm
Compound: CCCn1c2cccc3oc4cccc5oc6cccc1c6[c+](c45)c32

- emission maximum (in C1CCCCC1): 437 nm
- emission maximum (in C1CCOC1): 452 nm
- emission maximum (in CC#N): 483 nm
- emission maximum (in CO): 492 nm
- emission maximum (in CS(C)=O): 490 nm
- emission maximum (in ClCCl): 482 nm
- emission maximum (in O): 520 nm
Compound: CC1=N/C(=C\c2ccc(N(C)C)cc2)C(=O)N1C

- emission maximum (in ClC(Cl)Cl): 753 nm
Compound: CC1=CC(/C=C/c2ccc(N(C)C)cc2)=[N+]2C1=C(c1ccccc1)c1c(C)cc(/C=C/c3ccc(N(C)C)cc3)n1[B-]2(F)F

- emission maximum (in CC#N): 490 nm
Compound: N#C/C(=C\c1ccc(C(F)(F)F)cc1)c1nc(-c2ccc(Cl)cc2)cs1

- emission maximum (in C1CCCCC1): 569 nm
- emission maximum (in c1ccccc1): 622 nm
Compound: Nc1ccc2c(c1)C(=O)c1ccccc1-2

- emission maximum (in CS(C)=O): 523 nm
Compound: Cc1ccc(-c2cc(/C=C/c3ccc(N(c4ccccc4)c4ccccc4)cc3)c(C#N)c(N3CCCCC3)c2)cc1

- emission maximum (in CC#N): 449 nm
- emission maximum (in CO): 449 nm
- emission maximum (in O): 457 nm
Compound: CN1CCN(CCCN2c3ccccc3Sc3ccc(Cl)cc32)CC1

- emission maximum (in C1COCCO1): 521 nm
Compound: CC(=O)Nc1ccc(C2=C/C(=C\c3ccc(C#N)cc3)C(=O)O2)cc1

- emission maximum (in CO): 419 nm
Compound: Cc1ccc2c(c1)nnn2-c1c(C#N)c2c(N)ncnc2n1[C@H]1C[C@H](O)[C@@H](CO)O1

- emission maximum (in C1CCCCC1): 333 nm
Compound: C[SiH](C)c1ccc([SiH](C)C)c2ccccc12

- emission maximum (in C1CCCCC1): 351 nm
Compound: c1cc(-c2ccc3c(c2)CCCO3)ccc1-c1ccc2c(c1)CCCO2

- emission maximum (in CS(C)=O): 720 nm
- emission maximum (in OCC(O)CO): 685 nm
Compound: C[n+]1ccc(/C=C/c2ccc(N(c3ccccc3)c3ccc(/C=C/c4cc[n+](C)cn4)cc3)cc2)nc1

- emission maximum (in C1CCCCC1): 390 nm
- emission maximum (in CO): 400 nm
Compound: C/C(=C\c1ccc(Cl)cc1)c1nc2ccccc2s1

- emission maximum (in CC#N): 426 nm
Compound: C(=C\c1cc[n+](Cc2ccccc2)cc1)/c1cc[n+](Cc2ccccc2)cc1

- emission maximum (in C1CCOC1): 420 nm
Compound: C1=C(c2ccccc2)C=C(c2ccccc2)/C1=C/C1CCCCC1

- emission maximum (in CC#N): 483 nm
Compound: COc1cc2cc(/C=C/c3ccc(/C=C(\C#N)C(=O)O)cc3)c(=O)oc2cc1OC

- emission maximum (in CCO): 586 nm
- emission maximum (in ClCCl): 585 nm
Compound: COc1ccccc1-c1c2ccc(=[N+]3CCCCC3)cc-2oc2cc(N3CCCCC3)ccc12

- emission maximum (in C1CCOC1): 367.4 nm
Compound: CCCCCCCCCCCCn1c(-c2cc(-c3nc4ccccc4n3CCCCCCCCCCCC)cc(-c3nc4ccccc4n3CCCCCCCCCCCC)c2)nc2ccccc21

- emission maximum (in ClCCl): 563 nm
Compound: CC1=C(C)c2cccc3c2c(cc2nc4ccccc4nc23)O1

- emission maximum (in C1CCCCC1): 400 nm
- emission maximum (in CC#N): 504 nm
Compound: Cc1ccc(/C=C/c2ccccc2-[n+]2cc([O-])on2)cc1

- emission maximum (in CN(C)C=O): 415 nm
Compound: C(=C\c1ccc(-c2nnc(-c3ccccc3)o2)cc1)/c1ccc(-c2nnc(-c3ccccc3)o2)cc1

- emission maximum (in ClCCl): 407 nm
Compound: C[Si]1(C)c2cc(C#Cc3ccccc3)ccc2C=Cc2ccc(C#Cc3ccccc3)cc21
